From patent US20160115540A1, “PRODRUGS AND DRUGS” (Biogen MA Inc., priority 2013, published 2016)
Structures can show the parent of a compound that is named as a salt.

Test system: blood and tissues
Test: Transcriptional profiling, multi-dosing regimen, naïve mice: blood and other tissues
Assay type: in vivo
Settings: for Number of differentially expressed genes identified: Cerebellum / Number of differentially expressed genes identified: Lymph Node / Number of differentially expressed genes identified: Whole blood: Table 13: Naïve, Single Dose (so in the source), 12 h after last dosing
Procedure: In vivo, DMF is rapidly metabolized to monomethyl fumarate (MMF). […] Animals were exposed to CO2 and whole blood collected via cardiac puncture. Two 100 μl aliquots of whole blood were collected in 1.5 mL microcentrifuge tubes and snap frozen in liquid nitrogen. Peripheral (liver, spleen, kidney and jejunum) and CNS brain (cerebellum, hippocampus, striatum and cortex) tissues were harvested and snap frozen in liquid nitrogen, with special care taken to collect tissues of similar size and from the same location. All samples were stored at -80° C. until RNA extraction was conducted. For RNA preparation, frozen tissues were placed in 2 mL RNAse-free 96-well blocks with 1.5 mL QIAzol Lysis Reagent (QIAgen) and a 3.2 mm stainless steel bead (BioSpec Products, Bartlesville, Okla.). Tissues were disrupted for four cycles of 45 seconds in a Mini-Beadbeater (Biospec Products). RNA was extracted in chloroform and the aqueous phase was mixed with an equal volume of 70% ethanol. Extracted RNA was applied to RNeasy 96 plates and purified by the spin method according to the manufacturer's protocol (RNeasy 96 Universal Tissue Protocol, QIAgen, Hilden Germany). 50 ul of snap frozen mouse blood was re-suspended in lysis buffer with proteinase K and arrayed into deep-well plates for automated RNA extraction. RNA extractions were completed on […] (Beckman Coulter, Indianapolis, Ind.) using Agencourt RNAdvance Blood kit (Part number A35604) according to the manufacturer's specifications. RNA integrity was assessed using the HT RNA reagent kit (Part number 760410, Caliper Life Sciences, Hopkinton, Mass.) using a LabChip GX (PerkinElmer, Waltham, Mass.). RNA samples with a RQS score of >8.0 were considered high quality for downstream microarray processing. […] Two micrograms of biotin labeled […] probe were hybridized to Affymetrix GeneChip Affymetrix HT_MG-430_PM plate arrays with modified conditions as described in […] et al. Washing and staining of the hybridized arrays were completed as described in the GeneChip Expression analysis technical manual for HT plate arrays using the Genechip® Array Station (Affymetrix, Santa Clara, Calif.) with modifications as described in […] et al. The processed GeneChip® plate arrays were scanned using GeneTitan scanner (Affymetrix, Santa Clara, Calif.). Affymetrix scans were subject to quality control (QC) measures. These tests included a visual inspection of the distribution of raw signal intensities and an assessment of RNA degradation, relative log expression (RLE), and normalized unsealed standard error (NUSE). All sample scans that passed these QC metrics were included in the analysis. All CEL files were subjected to GC-content-based Robust Multi-array Average (GCRMA) normalization (version 2.20.0) (Irizarry R A, et al. Nucleic Acids Res 2003; 31:e15; Li C, et al. Genome Biol 2001; 2:[…]0032). […] Stat Appl Genet Mol Biol 2004; 3:Article3). […] Springer Science+Business Media 2005). Changes in gene expression were studied by applying a linear modeling approach to fit gene expression levels according to the defined groups of samples (e.g. DMF-, MMF-, and Vehicle-treated animals) and Bayesian posterior error analysis as implemented by Smyth (Smyth G K. Stat Appl Genet Mol Biol 2004; 3:Article3). The comparisons considered included: DMF-vs-MMF, DMF-vs-Vehicle, and MMF-vs-Vehicle. […] Very few DEGs are observed in blood and tissues derived from the central nervous system (brain, cerebellum, cortex, striatum, and spinal cord).

[1] = CEREBELLUM, 100DMF-vs-Veh, naïve multidose
[2] = LYMPH NODE, 100DMF-vs-Veh, naïve multidose
[3] = WHOLE BLOOD, 100DMF-vs-100MMF, naïve multidose

SMILES: COC(=O)/C=C/C(=O)OC [DMF, dimethyl fumarate]
- FC (1110020A21Rik 1439574_PM_at, WHOLE BLOOD, 100DMF-vs-Veh): −1.77
- FC (8430427H17Rik 1428284_PM_at, WHOLE BLOOD, 100DMF-vs-Veh): −1.73
- FC 1110021J02Rik (1419892_PM_at) [1]: 1.54
- FC Aox1 (1419435_PM_at) [1]: 1.60
- FC Apold1 (1441228_PM_at) [1]: 1.85
- FC Cnnm3 (1420481_PM_at) [1]: 1.62
- FC Prr15 (1452473_PM_at) [1]: 1.80
- FC Rapgef4 (1421622_PM_a_at) [1]: −1.55
- FC Tgm2 (1437277_PM_x_at) [1]: 1.51
- FC probe 1457266_PM_at (no gene symbol) [1]: 1.51
- FC Ccl6 (1420249_PM_s_at) [2]: 1.66
- FC Ccl17 (1419413_PM_at) [2]: −1.57
- FC Nqo1 (1423627_PM_at) [2]: 1.95
- FC Nts (1422860_PM_at) [2]: 2.72
- FC (Parm1 1424214_PM_at, WHOLE BLOOD, 100DMF-vs-Veh): −1.68
- FC (Pla2g7 1430700_PM_a_at, WHOLE BLOOD, 100DMF-vs-Veh): 1.65
- FC (Slc27a2 1416316_PM_at, WHOLE BLOOD, 100DMF-vs-Veh): −2.37
- Number of differentially expressed genes identified: Cerebellum (100 mpk DMF-vs-90 mpk MMF): 0
- Number of differentially expressed genes identified: Lymph Node (100 mpk DMF-vs-90 mpk MMF): 0
- Number of differentially expressed genes identified: Whole blood (100 mpk DMF-vs-90 mpk MMF): 0
- Number of differentially expressed genes identified: Cerebellum (100 mpk DMF-vs-Vehicle): 8
- Number of differentially expressed genes identified: Lymph Node (100 mpk DMF-vs-Vehicle): 4
- Number of differentially expressed genes identified: Whole blood (100 mpk DMF-vs-Vehicle): 5
- FC 2610001J05Rik (1448002_PM_x_at) [3]: −4.35
- FC 8430408G22Rik (1433836_PM_a_at) [3]: 1.78
- FC A730017C20Rik (1437528_PM_x_at) [3]: 1.56
- FC Aco1 (1456728_PM_x_at) [3]: 1.56
- FC Cadm2 (1435146_PM_s_at) [3]: 1.50
- FC Cdk7 (1424257_PM_at) [3]: 1.73
- FC Cherp (1436885_PM_a_at) [3]: 1.53
- FC Neo1 (1447694_PM_x_at) [3]: −3.98
